Test results as given in patent US20240190856A1, “MELANOCORTIN-4 RECEPTOR AGONIST” (LG CHEM, LTD., priority 2021, published 2024).
Counter-ions that a name gives are not always drawn.

molecular target: T1, MC4R (melanocortin-4 receptor) (Homo sapiens, UniProt P32245); assay: Luciferase assay (CRE-LUC, HEK MC4R-Luc cells); type: cell-based; conditions: 5 h incubation, concentration inducing 50% of each agonist's own maximum luminescence
T1 construct: expressed in transfected cells
Method: In order to measure the agonist ability against MC4R (melanocortin-4 receptor), a cell line that permanently expresses the luciferase gene (CRE-LUC) under the control of MC4R and CRE (cAMP response element) was established. After a mammalian cell expression vector (pCDNA3 (Neo)) (Invitrogen) containing the MC4R gene was prepared, human embryonic kidney (HEK) cell lines were transformed by using Lipofectamine 2000 (Invitrogen) together with a vector (pCRE-Luc)(Stratagen) expressing a luciferase gene (CRE-LUC) under the control of a cAMP response element (CRE). Transformed cell lines (HEK MC4R-Luc) were incubated in a 37° C. incubator in the presence of 5% CO2 for 24 hours by using Dulbecco's Modified Eagles Medium (DMEM) containing 10% Heat-Inactivated Fetal Bovine Serum (GIBCO/BRL). The cell lines were incubated for four days in the presence of Dulbecco's Modified Eagles Medium (DMEM) containing 10 ml of selection medium (10% Heat-Inactivated Fetal Bovine Serum (GIBCO/BRL), 100 unit/ml of penicillin (GIBCO/BRL), 100 unit/ml of streptomycin (GIBCO/BRL), 800 μg/ml of Geneticin (G418) (GIBCO/BRL). The process of removing cells killed by the selection medium by replacing the medium with 10 ml of a new selection medium was repeated three times, once every 4 days. Individual colonies formed by the finally selected and propagated clones were transferred under a microscope to a 24-well cell culture plate containing 1 ml of selection medium per well and incubated for 4 days. Forskolin (SIGMA) was treated to a final concentration of 10 μM, and then incubated for five hours in a 37° C. incubator in the presence of 5% CO2. Each well was treated with 50 μl of a Bright-Glo luciferase reagent (Promega) and left at room temperature for 15 minutes, and then the luminescence of each well was measured by using a luminometer (Victor).
HEK MC4R-Luc cells were added to each well of a 96-well luminometer cell culture plate (Costar) to a size of 2.5×10^4 cells in 100 μl of a culture medium and then incubated in a 37° C. incubator in the presence of 6% CO2 for 18 hours. […] Each well was treated with 50 μl of a Bright-Glo luciferase reagent (Promega) and left at room temperature for five minutes, and then the luminescence of each well was measured by using a luminometer (Victor). […] EC0.5 MSH is expressed as a concentration that induces 50% of the maximum amount of luminescence that can be induced by NDP-α-MSH, and EC50 is expressed as a concentration that induces 50% of the maximum amount of luminescence that can be induced by each agonist. The measurements were measured using statistical software (Prizm).

T1 sequence (P32245 whole entry, species assumed): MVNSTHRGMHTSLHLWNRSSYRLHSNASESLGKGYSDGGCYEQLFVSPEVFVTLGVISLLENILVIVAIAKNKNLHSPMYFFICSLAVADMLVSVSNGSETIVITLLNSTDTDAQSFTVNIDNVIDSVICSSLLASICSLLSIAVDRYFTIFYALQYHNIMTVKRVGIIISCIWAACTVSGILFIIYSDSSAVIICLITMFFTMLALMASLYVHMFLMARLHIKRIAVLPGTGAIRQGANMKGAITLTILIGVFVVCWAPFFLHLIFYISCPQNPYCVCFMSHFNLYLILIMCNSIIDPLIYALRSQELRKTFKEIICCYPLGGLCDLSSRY

Row | EC50 | SMILES
1 | 0.629 nM | CC(C)(C)C(=O)N([C@H]1C[C@@H](C(=O)N2CCOCC2)N(C(=O)[C@@H]2CN(C(C)(C)C)C[C@H]2c2ccc(F)cc2F)C1)[C@H]1CC[C@@H](C)CC1 [Example 1, N-((3S,5S)-1-((3S,4R)-1-(tert-butyl)-4-(2,4-difluorophenyl)pyrrolidine-3-carbonyl)-5-(morpholine-4-carbonyl)pyrrolidin-3-yl)-N-((1s,4R)-4-methylcyclohexyl)pivalamide hydrochloride]
2 | 4.04 nM | CC1(C)CCC(N(C(=O)C(C)(C)C)[C@H]2C[C@@H](C(=O)N3CCOCC3)N(C(=O)[C@@H]3CN(C(C)(C)C)C[C@H]3c3ccc(Cl)cc3)C2)CC1 [Example 6, N-((3S,5S)-1-((3S,4R)-1-(tert-butyl)-4-(4-chlorophenyl)pyrrolidine-3-carbonyl)-5-(morpholine-4-carbonyl)pyrrolidin-3-yl)-N-(4,4-dimethylcyclohexyl)pivalamide hydrochloride]
3 | 0.922 nM | CC(C)C(=O)N([C@H]1C[C@@H](C(=O)N2CCOCC2)N(C(=O)[C@@H]2CN(C(C)(C)C)C[C@H]2c2ccc(Cl)cc2F)C1)[C@H]1CC[C@@H](C)CC1 [Example 3, N-((3S,5S)-1-((3S,4R)-1-(tert-butyl)-4-(4-chloro-2-fluorophenyl)pyrrolidine-3-carbonyl)-5-(morpholine-4-carbonyl)pyrrolidin-3-yl)-N-((1s,4R)-4-methylcyclohexyl)isobutyramide hydrochloride]
4 | 0.555 nM | CC(C)(C)C(=O)N([C@H]1C[C@@H](C(=O)N2CCOCC2)N(C(=O)[C@@H]2CN(C(C)(C)C)C[C@H]2c2ccc(Cl)cc2F)C1)[C@H]1CC[C@@H](C)CC1 [Example 4, N-((3S,5S)-1-((3S,4R)-1-(tert-butyl)-4-(4-chloro-2-fluorophenyl)pyrrolidine-3-carbonyl)-5-(morpholine-4-carbonyl)pyrrolidin-3-yl)-N-((1s,4R)-4-methylcyclohexyl)pivalamide hydrochloride]
5 | 2.47 nM | CC(C)C(=O)N([C@H]1C[C@@H](C(=O)N2CCOCC2)N(C(=O)[C@@H]2CN(C(C)(C)C)C[C@H]2c2ccc(F)cc2F)C1)[C@H]1CC[C@@H](C)CC1 [Example 2, N-((3S,5S)-1-((3S,4R)-1-(tert-butyl)-4-(2,4-difluorophenyl)pyrrolidine-3-carbonyl)-5-(morpholine-4-carbonyl)pyrrolidin-3-yl)-N-((1s,4R)-4-methylcyclohexyl)isobutyramide hydrochloride]
